# Source: ChEMBL document CHEMBL3991601, “The target landscape of clinical kinase drugs” (Science, 2017)
# Calls of active or inactive are those of the source. Cut-off read from the data, not from the text of the source, for most assays here: actives have a measured Kd and inactives only a lower limit.
# Target: AP2-associated protein kinase 1 (Homo sapiens, UniProt Q2M2I8)
# Note: in the data inactive means no Kd found up to 30 µM.
# Sequence of AP2-associated protein kinase 1 (Q2M2I8 whole entry): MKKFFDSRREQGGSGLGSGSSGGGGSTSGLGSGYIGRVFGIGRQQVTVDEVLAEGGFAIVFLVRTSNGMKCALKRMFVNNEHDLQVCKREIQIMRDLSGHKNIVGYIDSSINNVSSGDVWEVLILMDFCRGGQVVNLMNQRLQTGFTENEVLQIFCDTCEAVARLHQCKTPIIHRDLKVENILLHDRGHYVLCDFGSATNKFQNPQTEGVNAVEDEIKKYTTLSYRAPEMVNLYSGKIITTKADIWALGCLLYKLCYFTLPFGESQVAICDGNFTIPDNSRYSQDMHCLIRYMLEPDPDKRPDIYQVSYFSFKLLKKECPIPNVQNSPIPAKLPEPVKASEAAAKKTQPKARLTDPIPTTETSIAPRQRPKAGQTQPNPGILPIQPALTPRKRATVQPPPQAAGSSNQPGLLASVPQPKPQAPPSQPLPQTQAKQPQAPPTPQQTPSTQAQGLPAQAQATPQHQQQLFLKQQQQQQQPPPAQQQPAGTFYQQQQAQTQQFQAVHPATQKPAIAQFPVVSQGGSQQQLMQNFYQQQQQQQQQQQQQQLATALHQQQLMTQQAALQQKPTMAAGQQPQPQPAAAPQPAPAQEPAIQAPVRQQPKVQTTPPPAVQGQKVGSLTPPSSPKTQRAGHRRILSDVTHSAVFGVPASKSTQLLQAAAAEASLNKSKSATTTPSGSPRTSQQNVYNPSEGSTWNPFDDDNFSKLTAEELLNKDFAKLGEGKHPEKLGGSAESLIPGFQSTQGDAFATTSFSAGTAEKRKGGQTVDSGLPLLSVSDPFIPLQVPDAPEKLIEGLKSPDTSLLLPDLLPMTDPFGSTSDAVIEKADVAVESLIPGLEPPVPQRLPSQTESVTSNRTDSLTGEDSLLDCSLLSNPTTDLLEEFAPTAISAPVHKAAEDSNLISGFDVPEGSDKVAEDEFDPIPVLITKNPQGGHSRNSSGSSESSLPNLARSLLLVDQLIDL
row,Compound,Kd
1,CNS(=O)(=O)Nc1nccc(Cc2c(C)c3ccc(Oc4ncccn4)cc3oc2=O)c1F [AVUTOMETINIB],> 30 µM (inactive)
2,COc1cc(CCc2cc(NC(=O)c3ccc(N4C[C@@H](C)N[C@@H](C)C4)cc3)n[nH]2)cc(OC)c1 [AZD-4547],> 30 µM (inactive)
3,Cc1cc([C@@H](C)Nc2ccccc2C(=O)O)c2nc(N3CCOCC3)cc(=O)n2c1 [AZD-6482],> 30 µM (inactive)
4,COc1ccc(-c2ccc3c(N4CCOC[C@@H]4C)nc(N4CCOC[C@@H]4C)nc3n2)cc1CO [AZD-8055],> 30 µM (inactive)
5,C[C@@H](Nc1cc(F)cc(F)c1)c1cc(C(=O)N(C)C)cc2c(=O)cc(N3CCOCC3)oc12 [AZD-8186],> 30 µM (inactive)
6,Cc1ccc(NC(=O)c2ccc(CN3CC[C@H](N(C)C)C3)c(C(F)(F)F)c2)cc1Nc1nccc(-c2cncnc2)n1 [BAFETINIB],> 30 µM (inactive)
7,CCS(=O)(=O)N1CC(CC#N)(n2cc(-c3ncnc4[nH]ccc34)cn2)C1 [BARICITINIB],0.046 µM (active)
8,Cc1cc2c(F)c(Oc3ncnn4cc(OC[C@@H](C)OC(=O)[C@H](C)N)c(C)c34)ccc2[nH]1 [BRIVANIB ALANINATE],> 30 µM (inactive)

# Target: Mitogen-activated protein kinase 10 (Homo sapiens, UniProt P53779)
# Sequence (P53779 whole entry): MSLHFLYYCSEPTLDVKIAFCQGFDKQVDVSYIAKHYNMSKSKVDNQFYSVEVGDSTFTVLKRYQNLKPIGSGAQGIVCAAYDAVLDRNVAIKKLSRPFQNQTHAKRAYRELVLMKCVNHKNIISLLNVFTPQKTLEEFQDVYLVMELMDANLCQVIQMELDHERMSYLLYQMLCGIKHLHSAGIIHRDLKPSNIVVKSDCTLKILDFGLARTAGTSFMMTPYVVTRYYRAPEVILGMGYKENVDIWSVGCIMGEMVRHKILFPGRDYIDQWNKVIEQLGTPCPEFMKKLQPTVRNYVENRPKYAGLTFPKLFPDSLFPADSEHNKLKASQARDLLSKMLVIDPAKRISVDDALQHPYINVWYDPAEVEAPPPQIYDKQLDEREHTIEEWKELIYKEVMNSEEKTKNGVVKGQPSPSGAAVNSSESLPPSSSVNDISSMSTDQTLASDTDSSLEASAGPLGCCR
row,Compound,Kd
1,CNS(=O)(=O)Nc1nccc(Cc2c(C)c3ccc(Oc4ncccn4)cc3oc2=O)c1F [AVUTOMETINIB],> 30 µM (inactive)
2,COc1cc(CCc2cc(NC(=O)c3ccc(N4C[C@@H](C)N[C@@H](C)C4)cc3)n[nH]2)cc(OC)c1 [AZD-4547],> 30 µM (inactive)
3,Cc1cc([C@@H](C)Nc2ccccc2C(=O)O)c2nc(N3CCOCC3)cc(=O)n2c1 [AZD-6482],> 30 µM (inactive)
4,COc1ccc(-c2ccc3c(N4CCOC[C@@H]4C)nc(N4CCOC[C@@H]4C)nc3n2)cc1CO [AZD-8055],> 30 µM (inactive)
5,C[C@@H](Nc1cc(F)cc(F)c1)c1cc(C(=O)N(C)C)cc2c(=O)cc(N3CCOCC3)oc12 [AZD-8186],> 30 µM (inactive)
6,Cc1ccc(NC(=O)c2ccc(CN3CC[C@H](N(C)C)C3)c(C(F)(F)F)c2)cc1Nc1nccc(-c2cncnc2)n1 [BAFETINIB],> 30 µM (inactive)
7,CCS(=O)(=O)N1CC(CC#N)(n2cc(-c3ncnc4[nH]ccc34)cn2)C1 [BARICITINIB],> 30 µM (inactive)
8,Cc1cc2c(F)c(Oc3ncnn4cc(OC[C@@H](C)OC(=O)[C@H](C)N)c(C)c34)ccc2[nH]1 [BRIVANIB ALANINATE],> 30 µM (inactive)

# Target: cAMP-dependent protein kinase type II-alpha regulatory subunit (Homo sapiens, UniProt P13861)
# Sequence (P13861 whole entry): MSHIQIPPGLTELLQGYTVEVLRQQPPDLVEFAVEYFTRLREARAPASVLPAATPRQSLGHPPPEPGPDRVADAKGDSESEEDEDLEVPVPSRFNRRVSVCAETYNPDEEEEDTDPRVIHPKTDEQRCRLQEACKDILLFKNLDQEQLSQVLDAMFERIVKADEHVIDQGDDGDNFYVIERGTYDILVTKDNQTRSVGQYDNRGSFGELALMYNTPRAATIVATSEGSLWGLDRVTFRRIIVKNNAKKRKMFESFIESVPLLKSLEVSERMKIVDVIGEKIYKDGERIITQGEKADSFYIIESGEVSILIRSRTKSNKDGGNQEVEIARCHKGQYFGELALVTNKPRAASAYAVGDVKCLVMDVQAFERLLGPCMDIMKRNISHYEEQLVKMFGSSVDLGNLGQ
row,Compound,Kd
1,CNS(=O)(=O)Nc1nccc(Cc2c(C)c3ccc(Oc4ncccn4)cc3oc2=O)c1F [AVUTOMETINIB],> 30 µM (inactive)
2,COc1cc(CCc2cc(NC(=O)c3ccc(N4C[C@@H](C)N[C@@H](C)C4)cc3)n[nH]2)cc(OC)c1 [AZD-4547],> 30 µM (inactive)
3,Cc1cc([C@@H](C)Nc2ccccc2C(=O)O)c2nc(N3CCOCC3)cc(=O)n2c1 [AZD-6482],> 30 µM (inactive)
4,COc1ccc(-c2ccc3c(N4CCOC[C@@H]4C)nc(N4CCOC[C@@H]4C)nc3n2)cc1CO [AZD-8055],> 30 µM (inactive)
5,Cc1ccc(NC(=O)c2ccc(CN3CC[C@H](N(C)C)C3)c(C(F)(F)F)c2)cc1Nc1nccc(-c2cncnc2)n1 [BAFETINIB],> 30 µM (inactive)
6,CCS(=O)(=O)N1CC(CC#N)(n2cc(-c3ncnc4[nH]ccc34)cn2)C1 [BARICITINIB],> 30 µM (inactive)
7,Cc1cc2c(F)c(Oc3ncnn4cc(OC[C@@H](C)OC(=O)[C@H](C)N)c(C)c34)ccc2[nH]1 [BRIVANIB ALANINATE],> 30 µM (inactive)

# Target: T1, Glycogen phosphorylase, brain form (Homo sapiens, UniProt P11216)
# T1 sequence (P11216 whole entry): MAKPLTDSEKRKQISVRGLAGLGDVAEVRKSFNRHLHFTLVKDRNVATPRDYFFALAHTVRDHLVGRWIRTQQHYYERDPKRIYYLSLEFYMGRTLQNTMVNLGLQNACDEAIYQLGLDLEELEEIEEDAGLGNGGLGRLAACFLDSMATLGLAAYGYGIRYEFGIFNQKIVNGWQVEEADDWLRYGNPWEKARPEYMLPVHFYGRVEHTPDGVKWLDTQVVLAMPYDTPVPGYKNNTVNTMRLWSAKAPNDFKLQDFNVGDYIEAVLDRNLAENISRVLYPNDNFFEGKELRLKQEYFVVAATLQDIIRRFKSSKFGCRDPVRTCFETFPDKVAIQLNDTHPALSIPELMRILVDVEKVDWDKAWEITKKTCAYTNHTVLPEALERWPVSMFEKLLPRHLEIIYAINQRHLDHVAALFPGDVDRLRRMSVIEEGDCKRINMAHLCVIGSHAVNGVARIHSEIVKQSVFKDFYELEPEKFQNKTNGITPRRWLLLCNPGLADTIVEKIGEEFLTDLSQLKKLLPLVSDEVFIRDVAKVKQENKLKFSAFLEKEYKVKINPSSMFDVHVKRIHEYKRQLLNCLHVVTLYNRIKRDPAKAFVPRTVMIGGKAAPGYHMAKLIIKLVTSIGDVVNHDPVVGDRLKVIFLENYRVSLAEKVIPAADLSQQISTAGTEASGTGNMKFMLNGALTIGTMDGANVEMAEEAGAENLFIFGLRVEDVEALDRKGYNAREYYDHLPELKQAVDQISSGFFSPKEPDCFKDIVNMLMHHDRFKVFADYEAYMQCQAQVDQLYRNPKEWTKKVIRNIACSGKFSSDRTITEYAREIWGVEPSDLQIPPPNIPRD
row,Compound,Kd
1,CNS(=O)(=O)Nc1nccc(Cc2c(C)c3ccc(Oc4ncccn4)cc3oc2=O)c1F [AVUTOMETINIB],> 30 µM (inactive)
2,COc1cc(CCc2cc(NC(=O)c3ccc(N4C[C@@H](C)N[C@@H](C)C4)cc3)n[nH]2)cc(OC)c1 [AZD-4547],> 30 µM (inactive)
3,Cc1cc([C@@H](C)Nc2ccccc2C(=O)O)c2nc(N3CCOCC3)cc(=O)n2c1 [AZD-6482],> 30 µM (inactive)
4,COc1ccc(-c2ccc3c(N4CCOC[C@@H]4C)nc(N4CCOC[C@@H]4C)nc3n2)cc1CO [AZD-8055],> 30 µM (inactive)
5,C[C@@H](Nc1cc(F)cc(F)c1)c1cc(C(=O)N(C)C)cc2c(=O)cc(N3CCOCC3)oc12 [AZD-8186],> 30 µM (inactive)
6,Cc1ccc(NC(=O)c2ccc(CN3CC[C@H](N(C)C)C3)c(C(F)(F)F)c2)cc1Nc1nccc(-c2cncnc2)n1 [BAFETINIB],> 30 µM (inactive)
7,CCS(=O)(=O)N1CC(CC#N)(n2cc(-c3ncnc4[nH]ccc34)cn2)C1 [BARICITINIB],> 30 µM (inactive)
8,Cc1cc2c(F)c(Oc3ncnn4cc(OC[C@@H](C)OC(=O)[C@H](C)N)c(C)c34)ccc2[nH]1 [BRIVANIB ALANINATE],> 30 µM (inactive)

# Target: T2, Serine/threonine-protein kinase TAO2 (Homo sapiens, UniProt Q9UL54)
# T2 sequence (Q9UL54 whole entry): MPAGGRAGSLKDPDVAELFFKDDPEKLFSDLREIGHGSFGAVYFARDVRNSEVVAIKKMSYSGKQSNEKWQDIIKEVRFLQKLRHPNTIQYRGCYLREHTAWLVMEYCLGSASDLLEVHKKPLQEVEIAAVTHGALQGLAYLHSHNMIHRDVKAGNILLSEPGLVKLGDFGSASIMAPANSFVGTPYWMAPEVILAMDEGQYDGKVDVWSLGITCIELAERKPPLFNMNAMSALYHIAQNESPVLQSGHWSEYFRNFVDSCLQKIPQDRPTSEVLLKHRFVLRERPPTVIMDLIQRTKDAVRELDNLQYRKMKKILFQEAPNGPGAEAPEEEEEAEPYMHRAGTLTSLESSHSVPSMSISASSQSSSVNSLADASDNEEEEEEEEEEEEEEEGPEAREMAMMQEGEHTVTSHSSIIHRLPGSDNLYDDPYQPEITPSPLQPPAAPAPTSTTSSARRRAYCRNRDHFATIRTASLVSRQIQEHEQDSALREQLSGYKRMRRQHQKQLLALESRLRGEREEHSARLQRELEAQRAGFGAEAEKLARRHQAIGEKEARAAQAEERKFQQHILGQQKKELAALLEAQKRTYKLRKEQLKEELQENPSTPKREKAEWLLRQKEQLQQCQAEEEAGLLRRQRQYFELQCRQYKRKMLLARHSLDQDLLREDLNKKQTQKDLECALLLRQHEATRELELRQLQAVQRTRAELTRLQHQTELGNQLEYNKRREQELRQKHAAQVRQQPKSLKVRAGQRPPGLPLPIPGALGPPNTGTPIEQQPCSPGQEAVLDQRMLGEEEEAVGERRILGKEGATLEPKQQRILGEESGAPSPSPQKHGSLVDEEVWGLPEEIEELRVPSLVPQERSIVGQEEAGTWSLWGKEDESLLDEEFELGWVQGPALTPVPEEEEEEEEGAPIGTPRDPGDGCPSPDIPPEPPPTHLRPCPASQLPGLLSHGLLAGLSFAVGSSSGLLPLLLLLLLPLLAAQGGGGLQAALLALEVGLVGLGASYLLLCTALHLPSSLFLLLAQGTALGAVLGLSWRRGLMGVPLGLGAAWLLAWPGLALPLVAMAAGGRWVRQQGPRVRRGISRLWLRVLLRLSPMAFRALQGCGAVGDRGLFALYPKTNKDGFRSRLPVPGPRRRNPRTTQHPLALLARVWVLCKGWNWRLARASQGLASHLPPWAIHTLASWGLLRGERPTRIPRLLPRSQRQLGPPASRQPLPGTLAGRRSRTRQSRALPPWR
row,Compound,Kd
1,CNS(=O)(=O)Nc1nccc(Cc2c(C)c3ccc(Oc4ncccn4)cc3oc2=O)c1F [AVUTOMETINIB],> 30 µM (inactive)
2,COc1cc(CCc2cc(NC(=O)c3ccc(N4C[C@@H](C)N[C@@H](C)C4)cc3)n[nH]2)cc(OC)c1 [AZD-4547],> 30 µM (inactive)
3,Cc1cc([C@@H](C)Nc2ccccc2C(=O)O)c2nc(N3CCOCC3)cc(=O)n2c1 [AZD-6482],> 30 µM (inactive)
4,COc1ccc(-c2ccc3c(N4CCOC[C@@H]4C)nc(N4CCOC[C@@H]4C)nc3n2)cc1CO [AZD-8055],> 30 µM (inactive)
5,C[C@@H](Nc1cc(F)cc(F)c1)c1cc(C(=O)N(C)C)cc2c(=O)cc(N3CCOCC3)oc12 [AZD-8186],> 30 µM (inactive)
6,Cc1ccc(NC(=O)c2ccc(CN3CC[C@H](N(C)C)C3)c(C(F)(F)F)c2)cc1Nc1nccc(-c2cncnc2)n1 [BAFETINIB],> 30 µM (inactive)
7,CCS(=O)(=O)N1CC(CC#N)(n2cc(-c3ncnc4[nH]ccc34)cn2)C1 [BARICITINIB],> 30 µM (inactive)
8,Cc1cc2c(F)c(Oc3ncnn4cc(OC[C@@H](C)OC(=O)[C@H](C)N)c(C)c34)ccc2[nH]1 [BRIVANIB ALANINATE],> 30 µM (inactive)
